Patent US7132417B2, “2-phenyl-1-[4-(2-aminoethoxy)-benzyl]-indoles as estrogenic agents” (Wyeth, priority 1996, dated 2006)
pIC50: −log10 of the molar value. Where a name gives a salt, the structure may show the parent alone.

Key:
estrogen receptor [1] = target: T1, estrogen receptor (Homo sapiens, UniProt P03372); test: In vitro estrogen receptor binding assay ([3H]-17β-estradiol competition); parameters: expressed in transfected cells; host or cells: CHO cells (100,000 g cytosol); conditions: read-out: Receptor Binding IC50's
T1 sequence (P03372 1-595): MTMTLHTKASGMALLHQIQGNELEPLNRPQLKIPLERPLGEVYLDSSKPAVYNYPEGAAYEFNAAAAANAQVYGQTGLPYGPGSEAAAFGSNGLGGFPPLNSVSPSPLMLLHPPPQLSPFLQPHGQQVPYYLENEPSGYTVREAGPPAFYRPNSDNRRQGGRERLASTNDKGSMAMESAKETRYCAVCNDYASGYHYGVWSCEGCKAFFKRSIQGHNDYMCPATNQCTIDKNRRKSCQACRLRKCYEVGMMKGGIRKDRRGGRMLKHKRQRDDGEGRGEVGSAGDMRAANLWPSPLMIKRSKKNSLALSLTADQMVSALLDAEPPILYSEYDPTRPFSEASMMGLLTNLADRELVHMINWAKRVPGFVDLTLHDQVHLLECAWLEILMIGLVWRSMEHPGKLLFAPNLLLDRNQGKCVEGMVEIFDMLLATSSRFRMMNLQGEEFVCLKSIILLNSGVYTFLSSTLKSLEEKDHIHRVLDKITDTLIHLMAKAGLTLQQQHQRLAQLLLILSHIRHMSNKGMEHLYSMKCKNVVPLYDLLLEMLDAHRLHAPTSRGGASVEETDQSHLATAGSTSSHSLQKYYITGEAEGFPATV
Protocol: In Vitro Estrogen Receptor Binding Assay
CHO cells overexpressing the estrogen receptor were grown in 150 mm^2 dishes in DMEM+10% dextran coated charcoal, stripped fetal bovine serum. The plates were washed twice with PBS and once with 10 mM Tris-HCl, pH 7.4, 1 mM EDTA. Cells were harvested by scraping the surface and then the cell suspension was placed on ice. Cells were disrupted with a hand-held motorized tissue grinder using two, 10-second bursts. […] The cytosol was then frozen and stored at −80° C. Protein concentration of the cytosol was estimated using the BCA assay with reference standard protein.
100 uG/100 uL of the receptor preparation was aliquoted per well. […] The plate was incubated at room temperature for 2.5 h. […] 200 uL of the supernatant solution was then removed for scintillation counting. Samples were counted to 2% or 10 minutes, whichever occurs first. […] Also, wells containing radioactivity but no cytosol were processed with charcoal to estimate unremovable DPM of [^3H]
Counts per minute (CPM) of radioactivity were automatically converted to disintegrated per minute (DPM) by the Beckman LS 7500 Scintillation Counter using a set of quenched standards to generate a H No. for each sample.
For the generation of IC50 curves, % binding is plotted vs compound. […] For a description of these methods, see Hulme, E. C., ed. […] Receptor-Ligand Interactions: A Practical Approach. IRL Press, New York. (see especially chapter 8).

estrogen receptor [2] = target: T1, estrogen receptor; test: 2X VIT ERE infection (luciferase) assay; format: cell-based; parameters: expressed in transfected cells; host or cells: Chinese Hamster Ovary cells (CHO), stably transfected; conditions: for Infection Luciferase Activity 1 uM + 17β estradiol: 1 uM compound + 1 nM 17β-estradiol (test for estrogen antagonism); for Infection Luciferase Activity 1 uM: 1 uM compound, percentage of activity as compared to 17β-estradiol
Protocol: Method No. 18 2X VIT ERE Infection Assay Cell Maintenance and Treatment
Chinese Hamster Ovary cells (CHO) which had been stably transfected with the human estrogen receptor were maintained in DMEM+10% fetal bovine serum (FBS). 48 h prior to treatment the growth medium was replaced with DMEM lacking phenol red +10% dextran coated charcoal stripped FBS (treatment medium). Cells were plated at a density of 5000 cells/well in 96-well plates containing 200 µL of medium/well.
Reporter DNA (Promega plasmid pGL2 containing two tandem copies of the vitellogenin ERE in front of the minimal thymidine kinase promoter driving the luciferase gene) was combined with the B-galactosidase expression plasmid pCH110 (Pharmacia) and carrier DNA (pTZ18U) in the following ratio:
20 uL of this mixture was added to each well of cells and remained on the cells for 16 h. […] Each treatment condition was performed on 8 wells (n=8) which were incubated for 24 h prior to the luciferase assay.
After removing the PBS, 25 uL of Promega lysis buffer was added to each well and allowed to stand at room temperature for 15 min, followed by 15 min at −80° C. and 15 min at 37° C. 20 uL of lysate was transferred to an opaque 96 well plate for luciferase activity evaluation and the remaining lysate (5 uL) was used for the B-galactosidase activity evaluation (normalize transfection). The luciferan substrate (Promega) was added in 100 uL aliquots to each well automatically by the luminometer and the light produced (relative light units) was read 10 seconds after addition.
To the remaining 5 uL of lysate 45 uL of PBS was added. Then 50 uL of Promega B-galactosidase 2× assay buffer was added, mixed well and incubated at 37° C. for 1 hour. A plate containing a standard curve (0.1 to 1.5 milliunits in triplicate) was set up for each experimental run. The plates were analyzed on a Molecular Devices spectrophotometric plate reader at 410 nm. The optical densities for the unknown were converted to milliunits of activity by mathematical extrapolation from the standard curve.
The luciferase data was generated as relative light units (RLUs) accumulated during a 10 second measurement and automatically transferred to a JMP (SAS Inc) file where background RLUs were subtracted. The B-galactosidase values were automatically imported into the file and these values were divided into the RLUs to normalize the data. The mean and standard deviations were determined from a n=8 for each treatment. […] These techniques are described by Tzukerman, M. T., Esty, A., Santiso-Mere, D., Danielian, P., Parker, M. G., Stein, R. B., Pike, J. W. and McDonnel, D. P. (1994).

Structure (SMILES)	pIC50 (estrogen receptor [1])	Infection Luciferase Activity 1 uM + 17β estradiol (estrogen receptor [2]) [%]	Infection Luciferase Activity 1 uM (estrogen receptor [2]) [%]
CCCCN(C)CCOc1ccc(Cn2c(-c3ccc(O)cc3)c(C)c3cc(O)ccc32)cc1 [compound 105, 1-{4-[2-(Butyl-methyl-amino)-ethoxy]-benzyl}-2-(4-hydroxy-phenyl)-3-methyl-1H-indol-5-ol]	7.55		
CCOc1ccc(-c2c(C)c3cc(O)ccc3n2Cc2ccc(OCCN3CCCCCC3)cc2)cc1 [compound 93, 1-[4-(2-Azepan-1-yl-ethoxy)-benzyl]-2-(4-ethoxy-phenyl)-3-methyl-1H-indol-5-ol]		−2	−3
COc1cccc(-c2c(C)c3cc(O)ccc3n2Cc2ccc(OCCN3CCCCC3)cc2)c1 [compound 131, 2-(3-Methoxy-phenyl)-3-methyl-1-[4-(2-piperidin-1-yl-ethoxy)-benzyl]-1H-indole-5-ol]	6.92		
COc1ccc(-c2c(C)c3cc(O)ccc3n2Cc2ccc(OCCN3CCCCC3)cc2)c(OC)c1 [compound 126, 2-(2,4-Dimethoxy-phenyl)-3-methyl-1-[4-(2-piperidin-1-yl-ethoxy)-benzyl]-1H-indol-5-ol]		0	−1
Cc1c(-c2ccc(O)cc2)n(Cc2ccc(OCCN3CCCCC3)cc2)c2ccc(F)cc12 [compound 94, 4-{5-Fluoro-3-methyl-1-[4-(2-piperidin-1-yl-ethoxy)-benzyl]-1H-indol-2-yl}-phenol]		15	−5
Cc1c(-c2ccc(F)cc2)n(Cc2ccc(OCCN3CCCCCC3)cc2)c2ccc(O)cc12 [compound 117, 1-[4-(2-Azepan-1-yl-ethoxy)-benzyl]-2-(4-fluoro-phenyl)-3-methyl-1H-indol-5-ol]		1	0
Cc1c(-c2ccc3c(c2)OCO3)n(Cc2ccc(OCCN3CCCCC3)cc2)c2ccc(O)cc12 [compound 119, 2-Benzo[1,3]dioxol-5-yl-3-methyl-1-[4-(2-piperidin-1-yl-ethoxy)-benzyl]-1H-indol-5-ol]		−1	−1
Cc1c(-c2ccc(O)cc2)n(Cc2ccc(OCCCN3CCCCC3)cc2)c2ccc(O)cc12 [Example No. 166, 2-(4-Hydroxy-phenyl)-3-methyl-1-{4-[3-(piperidin-1-yl)-propoxy]-benzyl}-1H-indol-5-ol]	7.00		
CCc1c(-c2ccc(O)cc2)n(Cc2ccc(OCCN3CCCCC3)cc2)c2ccc(O)cc12 [compound 137, 2-(4-Hydroxy-phenyl)-3-ethyl-1-[4-(2-piperidin-1-yl-ethoxy)-benzyl]-1H-indol-5-ol]	6.82		
Cc1c(-c2ccc(O)cc2)n(Cc2ccc(OCCN3CCCC(C)C3)cc2)c2ccc(O)cc12 (stereo not drawn) [compound 109, 2-(4-Hydroxy-phenyl)-3-methyl-1-{4-[2-(3-methyl-piperdin-1-yl)-ethoxy]-benzyl}-1H-indol-5-ol]	6.77		
Cc1c(-c2ccc(O)c(F)c2)n(Cc2ccc(OCCN3CCCCCC3)cc2)c2ccc(O)cc12 [compound 130, 2-(3-Fluoro-4-hydroxy-phenyl)-3-methyl-1-[4-(azepan-1-yl-ethoxy)-benzyl]-1H-indol-5-ol]	7.89		
Cc1c(-c2cccc(O)c2)n(Cc2ccc(OCCN3CCCCC3)cc2)c2ccc(O)cc12 [compound 127, 2-(3-Hydroxy-phenyl)-3-methyl-1-[4-(2-piperidin-1-yl-ethoxy)-benzyl]-1H-indol-5-ol]	7.72		
Cc1c(-c2ccc(O)c(F)c2)n(Cc2ccc(OCCN3CCCCC3)cc2)c2ccc(O)cc12 [compound 129, 2-(3-Fluoro-4-hydroxy-phenyl)-3-methyl-1-[4-(2-piperidin-1-yl-ethoxy)-benzyl]-1H-indol-5-ol]	8.26		
COc1ccc(-c2c(C)c3cc(O)ccc3n2Cc2ccc(OCCN3CCCCC3)cc2)cc1 [compound 89, 2-(4-methoxy-phenyl)-3-methyl-1-{4-[2-(piperidin-1-yl)-ethoxy]-benzyl}-1H-indol-5-ol]		18	16
Cc1c(-c2ccc(F)cc2)n(Cc2ccc(OCCN3CCCCC3)cc2)c2ccc(O)cc12 [compound 116, 2-(4-Fluoro-phenyl)-3-methyl-1-[4-(2-piperidine-1-yl-ethoxy)-benzyl]-1H-indol-5-ol]		1	−1
CCOc1ccc(-c2c(C)c3cc(O)ccc3n2Cc2ccc(OCCN3CCCCC3)cc2)cc1 [compound 92, 2-(4-Ethoxy-phenyl)-3-methyl-1-[4-(2-piperidin-1-yl-ethoxy)-benzyl]-1H-indol-5-ol]		−2	−4
Oc1ccc(-c2c(Cl)c3cc(O)ccc3n2Cc2ccc(OCCN3CCCC3)cc2)cc1 [compound 133, 3-Chloro-2-(4-hydroxy-phenyl)-1-[4-(2-pyrrolidin-1-yl-ethoxy)-benzyl]-1H-indol-5-ol]	8.40		
Cc1c(-c2ccc(O)cc2)n(Cc2ccc(OCCN3CCCC3)cc2)c2ccc(O)cc12 [compound 96, 2-(4-Hydroxy-phenyl)-3-methyl-1-[4-(2-pyrollidin-1-yl-ethoxy)-benzyl]-1H-indol-5-ol]		8	12
Cc1c(-c2ccc(O)cc2)n(Cc2ccc(OCCN3CCCCC3)cc2)c2ccccc12 [compound 86, 4-{3-Methyl-1-[4-(2-piperidin-1-yl-ethoxy)-benzyl]-1H-indol-2-yl}-phenol hydrochloride]		2	−5
COc1ccc(-c2c(C)c3cc(OC)ccc3n2Cc2ccc(OCCN3CCCCC3)cc2)cc1 [compound 90, 5-Methoxy-2-(4-methoxy-phenyl)-3-methyl-1-[4-(2-piperidin-1-yl-ethoxy)-benzyl]-1H-indole]		58	3
COc1ccc2c(c1)c(C)c(-c1ccc(O)cc1)n2Cc1ccc(OCCN2CCCCC2)cc1 [compound 88, 4-{5-Methoxy-3-methyl-1-{4-[2-(piperidin-1-yl)-ethoxy]-benzyl}-1H-indol-2-yl}-phenol]		44	4
